Test system: horny layer of the lower inner arm
Assay: Retention of moisturizing effect: water content in the horny layer by impedance meter (Example 2)
Format: in vivo, human
Conditions: 20° C., humidity 30%, average N=10; for Retention of moisturizing effect (water content in the horny layer), After 3 hr.: after additional 3 hours, washed with hot water again; for Retention of moisturizing effect (water content in the horny layer), After 15 min.: applied 1 hour, washed off with hot water, 15 minutes after
Description: Cosmetics of their corresponding formulations shown in Table 7 were prepared to determine the retention of their moisturizing effects.
A fixed amount of each of the above samples was applied to the lower inner arm of a volunteer and washed off with hot water after left at rest for 1 hour. The volunteer was got to enter an air-conditioned room kept at a temperature of 20° C. and a humidity of 30%. Fifteen minutes after that, the water content in the horny layer of the volunteer was measured by an impedance meter (manufactured by IBS Company). After additional 3 hours, the treated arm was washed with hot water again. Fifty minutes after that, the water content was measured in the same manner as described above. The values shown in the table were average values (N=10).

Row | Molecule | Retention of moisturizing effect (water content in the horny layer), After 3 hr. | Retention of moisturizing effect (water content in the horny layer), After 15 min.
1 | Bis(butoxyethoxyethyl)ethyl phosphate [Comparative product 8] | 40 μΩ^−1 | 70 μΩ^−1
2 | CCCCOCCOP(=O)(OCCOCCCC)OCCOCCCC [Comparative product 9, Tris(butoxyethyl) phosphate] | 40 μΩ^−1 | 70 μΩ^−1
3 | OCC(O)CO [Comparative product 11, Glycerol] | 45 μΩ^−1 | 75 μΩ^−1
4 | O [Comparative product 12, Purified water] | 40 μΩ^−1 | 60 μΩ^−1
